Values quoted from earlier work, collected in US20230149366A1, “SOLID DOSAGE FORMS OF TAFAMIDIS” (Nuray Chemicals Private Limited, priority 2021, published 2023).

Conditions: Vyndaqel European Public assessment report

For `O=C(O)c1ccc2nc(-c3cc(Cl)cc(Cl)c3)oc2c1` [tafamidis, 2-(3,5-dichlorophenyl)-1,3-benzoxazole-6-carboxylic acid], the “Solubility in vehicles commonly used in formulating soft gelatin capsules” value is listed as “poor solubility” and the “Gel formation in hard gelatin capsule with standard excipients” value (upon contact with aqueous vehicles) is listed as “formed a rigid gel structure”.
